In US20080227864A1, “Lhr1 Activators as Medicaments” (priority 2004, published 2008):

How the values were obtained:
[1] = molecular target: T1, Human LRH-1 Ligand Binding Domain (Homo sapiens, UniProt O00482); test: LRH-1 LBD / TIF2 Box3 coactivator peptide recruitment assay (Eu/APC, Lance mode); type: biochemical; settings: n of 44
T1 construct: made in house; host or cells: E. coli BL21(DE3), pRSETa vector
Description: Human LRH-1 Ligand Binding Domain (LRH1 LBD) was expressed in E.coli strain BL21(DE3) as an amino-terminal polyhistidine tagged fusion protein. Expression was under the control of an IPTG inducible T7 promoter. DNA encoding this recombinant protein was subcloned into the pRSETa expression vector (Invitrogen). Sequence encoding the modified polyhistidine tag ([…]) was fused in frame to sequence encoding residues 248-501 of LRH-1. The coding sequence of Human LRH-1 LBD was derived from Genbank accession number U—93553.
Purified LRH-1 LBD was desalted/buffer exchanged using PD-10 gel filtration columns into PBS [100 mM NaPhosphate, pH 7.2, 150 mM NaCl]. LRH-1 LBD was diluted to approximately 10 microM in PBS and five-fold molar excess of NHS-LC-Biotin (Pierce) was added in a minimal volume of PBS. This solution was incubated with gentle mixing for 60 minutes at ambient room temperature. The biotinylation modification reaction was stopped by the addition of 2000× molar excess of Tris-HCl, pH 8. […]
The above solutions are gently mixed together to give a final preparation of 5E-9 M (5 nM) APC-labelled LRH1 LBD and 1E-8 M […] Europium-labelled TIF2 box3 peptide. […] The plates were incubated for 1 hr then read on Wallac Victor2 V in Lance mode for EU/APC. […]

[2] = tested on: APOAl mRNA levels in HepG2 cells; test: APOAl mRNA levels in HepG2 cells treated with compound (RT-QPCR); type: cell-based; settings: 48 hours, 10 μm, vs vehicle (DMSO 0.1%), FIG. 4
Method: HepG2 and CV1 cells (ATCC, Rockville, Md.) were maintained in Basic Eagle's medium (BME) supplemented with 2 mM glutamine, 1% non-essential amino acids and 10% (v/v) fetal calf serum (FCS) in an atmosphere of 5% CO2 at 37° C.
Total cellular RNA was extracted using TRIZOL (Invitrogen). Real time quantitative PCR (RT-QPCR) assays were performed using an Applied Biosystems 7900 sequence detector. Total RNA (1 μg) was reverse transcribed with random hexamers using Taqman reverse-transcription reagents kit (Applied Biosystems) following the manufacturer's protocol. RNA expression levels were determined by Sybr green assays as described. 18SrRNA transcript was used as an internal control to normalize the variations for RNA amounts. Gene expression levels are expressed relative to 18S rRNA. Apo Al, Apo B, SR-Bl, SHP, LRH-1 and CYP7α mRNA levels were measured using the following oligonucleotides: For 18S: 5′-[…]-3′ and 5′-[…]-3′; for APO Al: 5′-[…]-3′ and 5′-[…]-3′; for Apo B: 5′-[…]-3′ and 5′-[…]-3′; for SR-Bl: 5′-[…]-3′ and 5′-[…]-3′; for SHP: 5′-[…]-3′ and 5′-[…]-3′; for LRH-1: 5′-[…]-3′ and 5′-[…]-3′; for CYP7α:5′-[…]-3′ and 5′-[…]-3′.
HepG2 cells, cultured in 24-well plates, were treated for 48 hours with Compound I, 10 μm or vehicle (DMSO 0.1%) prior to harvest and determination of APOAl mRNA levels by RT-QPOCR as described in Example 1 above.

T1 sequence (O00482 288-541): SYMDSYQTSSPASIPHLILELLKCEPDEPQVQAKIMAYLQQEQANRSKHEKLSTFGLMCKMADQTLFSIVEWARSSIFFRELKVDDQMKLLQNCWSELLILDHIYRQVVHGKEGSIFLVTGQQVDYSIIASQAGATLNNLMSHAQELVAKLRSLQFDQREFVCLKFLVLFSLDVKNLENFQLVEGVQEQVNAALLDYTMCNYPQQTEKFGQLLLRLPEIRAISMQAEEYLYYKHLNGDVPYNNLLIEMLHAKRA
T1 sequence (as listed by the source partner): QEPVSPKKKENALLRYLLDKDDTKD

CCC/C=C(\CCC)C1=C(c2ccccc2)[C@@]2(Nc3ccccc3)CCC[C@H]2C1 [Compound 1]
EC50 ([1]; LRH1 agonist activity, TIF2 Box3 peptide recruitment, read-out: ave pEC50 (converted)): 0.257 µM | ave % basal (maximum observed increase in agonist activity compared to the vehicle control) [1]: 277 % basal | APO Al gene expression (APOAl mRNA levels) [2]: Induces APO Al Gene Expression
